Source: ChEMBL document CHEMBL1201862, “PubChem BioAssay data set” (2004)
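How tested: cells in 96-well plates exposed to compound for 48 hours at five concentrations. GI50 is the concentration that inhibits growth by half.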 Activity calls are given as the source filed them. Rule as the data show it: active = GI50 up to about 1.1 µM and inactive = higher.

How the values were obtained:
Experiment in all cases: inhibition of tumour cell growth, NCI panel, 48 h
HOP-92 = system: HOP-92
SK-MEL-28 = system: SK-MEL-28
BT-549 = system: BT-549
A498 = system: A498
CCRF-CEM = system: CCRF-CEM
SW-620 = system: SW-620
HCT-116 = system: HCT-116
NCI/ADR-RES = system: NCI/ADR-RES
SF-295 = system: SF-295
K562 = system: K562
HCT-15 = system: HCT-15
MDA-MB-435 = system: MDA-MB-435
DU-145 = system: DU-145
NCI-H23 = system: NCI-H23
IGROV-1 = system: IGROV-1
HCC 2998 = system: HCC 2998
LOX IMVI = system: LOX IMVI
M14 = system: M14
SK-MEL-2 = system: SK-MEL-2
786-0 = system: 786-0
HT-29 = system: HT-29
EKVX = system: EKVX
U-251 = system: U-251
Malme-3M = system: Malme-3M
MCF7 = system: MCF7
T47D = system: T47D
SNB-19 = system: SNB-19
COLO 205 = system: COLO 205
SN12C = system: SN12C
UACC-257 = system: UACC-257
SK-OV-3 = system: SK-OV-3
MOLT-4 = system: MOLT-4
TK-10 = system: TK-10
MDA-MB-231 = system: MDA-MB-231
PC-3 = system: PC-3
ACHN = system: ACHN
SF-539 = system: SF-539
SNB-75 = system: SNB-75
NCI-H226 = system: NCI-H226
KM12 = system: KM12
A549 = system: A549
CAKI-1 = system: CAKI-1
MDA-N = system: MDA-N
RPMI-8226 = system: RPMI-8226
SK-MEL-5 = system: SK-MEL-5
OVCAR-5 = system: OVCAR-5
SR = system: SR
UACC-62 = system: UACC-62
OVCAR-8 = system: OVCAR-8
OVCAR-3 = system: OVCAR-3
SF-268 = system: SF-268
RXF 393 = system: RXF 393
HOP-62 = system: HOP-62
Hs-578T = system: Hs-578T
HL-60 = system: HL-60
NCI-H460 = system: NCI-H460
UO-31 = system: UO-31
OVCAR-4 = system: OVCAR-4

For `N#CC(=S)Nc1ccc(Cl)c(Cl)c1`, the GI50 (HOP-92) was 3.1 µM (inactive), the GI50 (SK-MEL-28) was 30.3 µM (inactive) and the GI50 (BT-549) was 27 µM (inactive). For the same compound, the GI50 (A498) was 32.7 µM (inactive), the GI50 (CCRF-CEM) was 10 µM (inactive) and the GI50 (SW-620) was 27 µM (inactive). The GI50 (HCT-116) was 28.8 µM (inactive), the GI50 (NCI/ADR-RES) was 26.3 µM (inactive) and the GI50 (SF-295) was 22.5 µM (inactive). For the same compound, the GI50 (K562) was 11.7 µM (inactive), the GI50 (HCT-15) was 27.2 µM and the GI50 (MDA-MB-435) was 27 µM (inactive). The GI50 (DU-145) was 45.6 µM (inactive), the GI50 (NCI-H23) was 31.9 µM (inactive) and the GI50 (IGROV-1) was 13.1 µM (inactive). For the same compound, the GI50 (HCC 2998) was 18.7 µM (inactive), the GI50 (LOX IMVI) was 26.6 µM (inactive) and the GI50 (M14) was 24.6 µM (inactive). The GI50 (SK-MEL-2) was 27.7 µM (inactive), the GI50 (786-0) was 35.7 µM (inactive) and the GI50 (HT-29) was 21.1 µM (inactive). The GI50 (EKVX) was 22.9 µM (inactive), the GI50 (U-251) was 23.2 µM (inactive) and the GI50 (Malme-3M) was 28.1 µM (inactive). The GI50 (MCF7) was 35.5 µM (inactive), the GI50 (T47D) was 27.1 µM (inactive) and the GI50 (SNB-19) was 43.8 µM (inactive). The GI50 (COLO 205) was 20.6 µM (inactive), the GI50 (SN12C) was 30.5 µM (inactive) and the GI50 (UACC-257) was 28.2 µM (inactive). For the same compound, the GI50 (SK-OV-3) was 20 µM (inactive), the GI50 (MOLT-4) was 17.3 µM (inactive) and the GI50 (TK-10) was 26.5 µM (inactive). The GI50 (MDA-MB-231) was 26.7 µM (inactive), the GI50 (PC-3) was 23.9 µM (inactive) and the GI50 (ACHN) was 33.3 µM (inactive). The GI50 (SF-539) was 20.7 µM (inactive), the GI50 (SNB-75) was 21.7 µM (inactive) and the GI50 (NCI-H226) was 22.4 µM (inactive). The GI50 (KM12) was 26.9 µM (inactive), the GI50 (A549) was 24 µM (inactive) and the GI50 (CAKI-1) was 29.8 µM (inactive). For the same compound, the GI50 (MDA-N) was 32.7 µM (inactive), the GI50 (RPMI-8226) was 3.2 µM (inactive) and the GI50 (SK-MEL-5) was 22.2 µM (inactive). For the same compound, the GI50 (OVCAR-5) was 16.4 µM (inactive), the GI50 (SR) was 21.7 µM (inactive) and the GI50 (UACC-62) was 19 µM (inactive). For the same compound, the GI50 (OVCAR-8) was 25.4 µM (inactive), the GI50 (OVCAR-3) was 20.5 µM (inactive) and the GI50 (SF-268) was 37.4 µM (inactive). The GI50 (RXF 393) was 25.4 µM (inactive) and the GI50 (HOP-62) was 44 µM (inactive).
`O=C1C(Cl)=C(OCCCCl)C(=O)c2c(O)ccc(O)c21` was tested, and the GI50 (HOP-92) was 1.78 µM (inactive), the GI50 (Hs-578T) was 4.91 µM (inactive) and the GI50 (SK-MEL-28) was 2.08 µM (inactive). For the same compound, the GI50 (BT-549) was 1.92 µM (inactive), the GI50 (A498) was 15.2 µM (inactive) and the GI50 (CCRF-CEM) was 0.0316 µM (active). For the same compound, the GI50 (HL-60) was 0.0715 µM (active), the GI50 (SW-620) was 1.35 µM (inactive) and the GI50 (HCT-116) was 1.85 µM (inactive). The GI50 (NCI-H460) was 6.61 µM (inactive), the GI50 (NCI/ADR-RES) was 3.69 µM (inactive) and the GI50 (SF-295) was 6.17 µM (inactive). The GI50 (K562) was 0.401 µM (active), the GI50 (HCT-15) was 1.84 µM and the GI50 (DU-145) was 9.73 µM (inactive). The GI50 (NCI-H23) was 2.19 µM (inactive), the GI50 (IGROV-1) was 4.18 µM (inactive) and the GI50 (HCC 2998) was 14.8 µM (inactive). For the same compound, the GI50 (LOX IMVI) was 1.76 µM (inactive), the GI50 (M14) was 1.43 µM (inactive) and the GI50 (UO-31) was 6.55 µM (inactive). For the same compound, the GI50 (786-0) was 2.04 µM (inactive), the GI50 (HT-29) was 2.03 µM (inactive) and the GI50 (EKVX) was 17.7 µM (inactive). For the same compound, the GI50 (U-251) was 5.9 µM (inactive), the GI50 (Malme-3M) was 1.74 µM (inactive) and the GI50 (MCF7) was 1.55 µM (inactive). For the same compound, the GI50 (T47D) was 2.34 µM (inactive), the GI50 (OVCAR-4) was 2.74 µM (inactive) and the GI50 (SNB-19) was 18.3 µM (inactive). For the same compound, the GI50 (COLO 205) was 1.53 µM (inactive), the GI50 (SN12C) was 2.26 µM (inactive) and the GI50 (UACC-257) was 2.32 µM (inactive). The GI50 (SK-OV-3) was 21.5 µM (inactive), the GI50 (MOLT-4) was 0.189 µM (active) and the GI50 (TK-10) was 3.12 µM (inactive). For the same compound, the GI50 (MDA-MB-231) was 2.31 µM (inactive), the GI50 (PC-3) was 3.99 µM (inactive) and the GI50 (ACHN) was 5.07 µM (inactive). The GI50 (SF-539) was 3.01 µM (inactive), the GI50 (SNB-75) was 2 µM (inactive) and the GI50 (NCI-H226) was 16.9 µM (inactive). For the same compound, the GI50 (KM12) was 13.1 µM (inactive), the GI50 (A549) was 6.4 µM (inactive) and the GI50 (CAKI-1) was 1.21 µM (inactive). The GI50 (MDA-N) was 1.52 µM (inactive), the GI50 (RPMI-8226) was 1.37 µM (inactive) and the GI50 (SK-MEL-5) was 1.73 µM (inactive). For the same compound, the GI50 (OVCAR-5) was 12.4 µM (inactive), the GI50 (SR) was 0.0836 µM (active) and the GI50 (UACC-62) was 1.77 µM (inactive). For the same compound, the GI50 (OVCAR-8) was 7.06 µM (inactive), the GI50 (OVCAR-3) was 2.42 µM (inactive) and the GI50 (SF-268) was 3.08 µM (inactive). The GI50 (RXF 393) was 2.28 µM (inactive) and the GI50 (HOP-62) was 8.99 µM (inactive).
